{"source": "BindingDB's records for doi:10.1021/jm1006148", "about": "(Sri International, 2010)", "target": "Neuronal acetylcholine receptor subunit alpha-7 (Rattus norvegicus, UniProt Q05941)", "sequence (Q05941 whole entry)": "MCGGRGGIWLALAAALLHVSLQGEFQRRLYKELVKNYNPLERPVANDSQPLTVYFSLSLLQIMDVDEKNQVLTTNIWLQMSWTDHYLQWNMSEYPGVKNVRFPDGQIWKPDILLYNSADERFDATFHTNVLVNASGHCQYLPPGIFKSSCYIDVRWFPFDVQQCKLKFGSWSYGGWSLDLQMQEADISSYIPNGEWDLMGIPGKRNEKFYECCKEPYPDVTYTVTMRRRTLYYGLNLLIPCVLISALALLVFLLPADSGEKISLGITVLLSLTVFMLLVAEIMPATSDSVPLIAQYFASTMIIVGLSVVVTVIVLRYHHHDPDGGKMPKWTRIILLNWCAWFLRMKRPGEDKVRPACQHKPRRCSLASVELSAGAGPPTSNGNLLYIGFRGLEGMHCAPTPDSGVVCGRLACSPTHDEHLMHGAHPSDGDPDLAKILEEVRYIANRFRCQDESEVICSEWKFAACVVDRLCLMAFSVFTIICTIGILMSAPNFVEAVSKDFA", "test": "Displacement of [3H]epibatidine from alpha7 nAChR in rat brain membranes after 2 hrs", "data": [{"compound": "CN1C2CCCC1CC(N1C(=O)Cc3ccccc31)C2", "note": "(stereo unspecified) [1-(1-(9-methyl-9-azabicyclo[3.3.1]nonan-3-yl)indolin-2-one]", "values": [{"measurement": "Ki", "value": "> 100", "unit": "µM"}]}]}
